Assay results from US9839629B2, “Inhibitors of the renal outer medullary potassium channel” (Merck Sharp & Dohme Corp., priority 2013, dated 2017).

target: T1, ROMK (Kir1.1) channel (Homo sapiens, UniProt P48048); assay: Thallium Flux Assay; format: cell-based
T1 sequence (P48048 1-391): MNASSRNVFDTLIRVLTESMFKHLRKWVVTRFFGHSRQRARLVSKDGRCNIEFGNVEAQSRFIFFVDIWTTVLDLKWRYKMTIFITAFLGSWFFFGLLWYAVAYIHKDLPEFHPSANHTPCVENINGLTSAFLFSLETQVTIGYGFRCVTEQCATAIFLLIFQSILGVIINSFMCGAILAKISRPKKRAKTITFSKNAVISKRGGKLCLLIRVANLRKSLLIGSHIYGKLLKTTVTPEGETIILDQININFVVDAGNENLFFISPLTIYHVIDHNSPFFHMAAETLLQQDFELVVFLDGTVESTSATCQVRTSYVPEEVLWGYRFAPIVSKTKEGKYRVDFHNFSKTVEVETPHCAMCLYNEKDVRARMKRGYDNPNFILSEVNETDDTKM
Protocol: A Thallium Flux Assay was performed on each of the final product compounds in the Examples. When the final product of an Example was an HCl salt, the salt was run in the Assay. This assay has been described previously; see, e.g., PCT Published Application WO 2013/062900.

First: CC1=C(N2CCC3(CCN(C[C@H](O)c4ccc5c(c4C)COC5=O)CC3)CC2=O)COC1=O [Example 28, (R)-9-(2-hydroxy-2-(4-methyl-1-oxo-1,3-dihydroisobenzofuran-5-yl)ethyl)-3-(4-methyl-5-oxo-2,5-dihydrofuran-3-yl)-3,9-diazaspiro[5.5]undecan-2-one]
Second: CC1=C(N2CCC3(CCN(C[C@H](O)c4ccc5c(c4C)COC5=O)CC3)[C@@H](F)C2)COC1=O [Example 34, 5-((R)-2-((R)-7-fluoro-9-(4-methyl-5-oxo-2,5-dihydrofuran-3-yl)-3,9-diazaspiro[5.5]undecan-3-yl)-1-hydroxyethyl)-4-methylisobenzofuran-1(3H)-one]
The IC50 of the first is 2-fold higher: 552 nM for the first, 275 nM for the second.

Going from `CC1=C(N2CCC3(CCN(C[C@H](O)c4ccc(-n5cnnn5)nc4C)CC3)CC2=O)COC1=O` [Example 29, (R)-9-(2-hydroxy-2-(2-methyl-6-(1H-tetrazol-1-yl)pyridin-3-yl)ethyl)-3-(4-methyl-5-oxo-2,5-dihydrofuran-3-yl)-3,9-diazaspiro[5.5]undecan-2-one] to `CC1=C(N2CCC3(CCN(C[C@H](O)c4ccc(-n5cnnn5)nc4C)CC3)CC2)COC1=O` [Example 45, (R)-4-(9-(2-hydroxy-2-(2-methyl-6-(1H-tetrazol-1-yl)pyridin-3-yl)ethyl)-3,9-diazaspiro[5.5]undecan-3-yl)-3-methylfuran-2(5H)-one], the IC50 falls from 330 nM to 16 nM (21-fold).

First: O=C1C=C(N2CCC3(CCN(C[C@H](O)c4ccc(-n5cnnn5)nc4)CC3)OC2=O)CO1 [Example 30, (R)-9-(2-(6-(1H-tetrazol-1-yl)pyridin-3-yl)-2-hydroxyethyl)-3-(5-oxo-2,5-dihydrofuran-3-yl)-1-oxa-3,9-diazaspiro[5.5]undecan-2-one]
Second: Cc1nc(-n2cnnn2)ccc1[C@@H](O)CN1CCC2(CC1)CCN(C1=CC(=O)OC1)C(=O)O2 [Example 31, (R)-9-(2-hydroxy-2-(2-methyl-6-(1H-tetrazol-1-yl)pyridin-3-yl)ethyl)-3-(5-oxo-2,5-dihydrofuran-3-yl)-1-oxa-3,9-diazaspiro[5.5]undecan-2-one]
The IC50 of the first is 2.6-fold higher: 171 nM for the first, 65 nM for the second.

Compared with `CC1=C(N2CCC3(CCN(C[C@H](O)c4ccc5c(c4C)COC5=O)CC3)[C@H](F)C2)COC1=O` [Example 35, 5-((R)-2-((S)-7-fluoro-9-(4-methyl-5-oxo-2,5-dihydrofuran-3-yl)-3,9-diazaspiro[5.5]undecan-3-yl)-1-hydroxyethyl)-4-methylisobenzofuran-1(3H)-one], `Cc1c([C@@H](O)CN2CCC3(CC2)CCN(C2=C(F)C(=O)OC2)CC3)ccc2c1COC2=O` [Example 38, (R)-5-(2-(9-(4-fluoro-5-oxo-2,5-dihydrofuran-3-yl)-3,9-diazaspiro[5.5]undecan-3-yl)-1-hydroxyethyl)-4-methylisobenzofuran-1(3H)-one] is 34-fold lower in IC50: 236 nM for the first, 7 nM for the second.

Going from `CC1=C(N2CCC3(CCN(CC(O)c4ccc(Br)cc4)CC3)CC2)COC1=O` (stereo not shown) [Example 36, 4-(9-(2-(4-bromophenyl)-2-hydroxyethyl)-3,9-diazaspiro[5.5]undecan-3-yl)-3-methylfuran-2(5H)-one] to `CC1=C(N2CCC3(CCN(C[C@H](O)c4ccc(-n5cnnn5)cc4)CC3)CC2)COC1=O` [Example 49, (R)-4-(9-(2-(4-(1H-tetrazol-1-yl)phenyl)-2-hydroxyethyl)-3,9-diazaspiro[5.5]undecan-3-yl)-3-methylfuran-2(5H)-one], the IC50 falls from 115 nM to 16 nM (7.2-fold).

Going from `Cc1c([C@@H](O)CN2CCC3(CC2)CCN(C2=CC(=O)OC2C)CC3)ccc2c1COC2=O` (stereo partly drawn) [Example 37, 5-((1R)-1-hydroxy-2-(9-(2-methyl-5-oxo-2,5-dihydrofuran-3-yl)-3,9-diazaspiro[5.5]undecan-3-yl)ethyl)-4-methylisobenzofuran-1(3H)-one] to `Cc1c([C@@H](O)CN2CCC3(CC2)CCN(C2=C(Cl)C(=O)OC2)CC3)ccc2c1COC2=O` [Example 40, (R)-5-(2-(9-(4-chloro-5-oxo-2,5-dihydrofuran-3-yl)-3,9-diazaspiro[5.5]undecan-3-yl)-1-hydroxyethyl)-4-methylisobenzofuran-1(3H)-one], the IC50 falls from 140 nM to 5 nM (28-fold).

Going from `Cc1nc(-n2cnnn2)ccc1[C@@H](O)CN1CCC2(CC1)CCN(C1=C(F)C(=O)OC1)CC2` [Example 39, (R)-3-fluoro-4-(9-(2-hydroxy-2-(2-methyl-6-(1H-tetrazol-1-yl)pyridin-3-yl)ethyl)-3,9-diazaspiro[5.5]undecan-3-yl)furan-2(5H)-one] to `CC1=C(N2CCC3(CCN(C[C@@H](O)c4ccc(-n5cnnn5)nc4C)CC3)CC2)COC1=O` [Example 46, (S)-4-(9-(2-hydroxy-2-(2-methyl-6-(1H-tetrazol-1-yl)pyridin-3-yl)ethyl)-3,9-diazaspiro[5.5]undecan-3-yl)-3-methylfuran-2(5H)-one], the IC50 rises from 11 nM to 38 nM (3.5-fold).

Going from `Cc1c([C@@H](O)CN2CCC3(CC2)CCN(C2=C(c4ccccc4)C(=O)OC2)CC3)ccc2c1COC2=O` [Example 41, (R)-5-(1-hydroxy-2-(9-(5-oxo-4-phenyl-2,5-dihydrofuran-3-yl)-3,9-diazaspiro[5.5]undecan-3-yl)ethyl)-4-methylisobenzofuran-1(3H)-one] to `Cc1c([C@@H](O)CN2CCC3(CC2)CCN(C2=C(c4ccncc4)C(=O)OC2)CC3)ccc2c1COC2=O` [Example 42, (R)-5-(1-hydroxy-2-(9-(5-oxo-4-(pyridin-4-yl)-2,5-dihydrofuran-3-yl)-3,9-diazaspiro[5.5]undecan-3-yl)ethyl)-4-methylisobenzofuran-1(3H)-one], the IC50 rises from 168 nM to 352 nM (2.1-fold).

First: Cc1c([C@@H](O)CN2CCC3(CC2)CCN(C2=C(C4CC4)C(=O)OC2)CC3)ccc2c1COC2=O [Example 44, (R)-5-(2-(9-(4-cyclopropyl-5-oxo-2,5-dihydrofuran-3-yl)-3,9-diazaspiro[5.5]undecan-3-yl)-1-hydroxyethyl)-4-methylisobenzofuran-1(3H)-one]
Second: CC1=C(N2CCC3(CCN(C[C@H](O)c4ccc(-n5cnnn5)cn4)CC3)CC2)COC1=O [Example 51, (S)-4-(9-(2-(5-(1H-tetrazol-1-yl)pyridin-2-yl)-2-hydroxyethyl)-3,9-diazaspiro[5.5]undecan-3-yl)-3-methylfuran-2(5H)-one]
The IC50 of the first is 4.1-fold lower: 17 nM for the first, 70 nM for the second.

`CC1=C(N2CCC3(CCN(C[C@H](O)c4ccc(-n5cnnn5)nc4)CC3)CC2)COC1=O` [Example 47, (R)-4-(9-(2-(6-(1H-tetrazol-1-yl)pyridin-3-yl)-2-hydroxyethyl)-3,9-diazaspiro[5.5]undecan-3-yl)-3-methylfuran-2(5H)-one] and `CC1=C(N2CCC3(CCN(C[C@@H](O)c4ccc(-n5cnnn5)nc4)CC3)CC2)COC1=O` [Example 48, (S)-4-(9-(2-(6-(1H-tetrazol-1-yl)pyridin-3-yl)-2-hydroxyethyl)-3,9-diazaspiro[5.5]undecan-3-yl)-3-methylfuran-2(5H)-one] are within 1.5-fold of each other in IC50: 13 nM for the first, 19 nM for the second.

Going from `CC1=C(N2CCC3(CCN(C[C@@H](O)c4ccc(-n5cnnn5)cc4)CC3)CC2)COC1=O` [Example 50, (S)-4-(9-(2-(4-(1H-tetrazol-1-yl)phenyl)-2-hydroxyethyl)-3,9-diazaspiro[5.5]undecan-3-yl)-3-methylfuran-2(5H)-one] to `CC1=C(N2CCC3(CCN(C[C@@H](O)c4ccc(-n5cnnn5)cn4)CC3)CC2)COC1=O` [Example 52, (R)-4-(9-(2-(5-(1H-tetrazol-1-yl)pyridin-2-yl)-2-hydroxyethyl)-3,9-diazaspiro[5.5]undecan-3-yl)-3-methylfuran-2(5H)-one], the IC50 rises from 16 nM to 37 nM (2.3-fold). The first is the more potent here.
